Measured values reported in paper PMC5405622 (Drug Metabolism Letters, 2016).
pKi: −log10 of the molar value. Several values for one entry are separate records, joined by “and”; a condition that tells them apart may be missing. Equal values may be shown once. Read-outs that look alike come from different tables or passages of the source. One block for each molecule: values may come before it.

Experiments:
[1] = system: mouse hepatocytes; experiment: Metabolism of GNE1 in mouse hepatocytes with or without ABT; type: in vitro ADME; conditions: ABT 500 μM, GNE1 5 μM
[2] = read-out: Plasma concentration at Cmax; cited from earlier work
[3] = target: PAK1 (Homo sapiens, UniProt Q13153); experiment: PAK1 inhibition constant; type: biochemical; conditions: read-out: PAK1 Ki
Chain of PAK1 (Q13153 whole entry): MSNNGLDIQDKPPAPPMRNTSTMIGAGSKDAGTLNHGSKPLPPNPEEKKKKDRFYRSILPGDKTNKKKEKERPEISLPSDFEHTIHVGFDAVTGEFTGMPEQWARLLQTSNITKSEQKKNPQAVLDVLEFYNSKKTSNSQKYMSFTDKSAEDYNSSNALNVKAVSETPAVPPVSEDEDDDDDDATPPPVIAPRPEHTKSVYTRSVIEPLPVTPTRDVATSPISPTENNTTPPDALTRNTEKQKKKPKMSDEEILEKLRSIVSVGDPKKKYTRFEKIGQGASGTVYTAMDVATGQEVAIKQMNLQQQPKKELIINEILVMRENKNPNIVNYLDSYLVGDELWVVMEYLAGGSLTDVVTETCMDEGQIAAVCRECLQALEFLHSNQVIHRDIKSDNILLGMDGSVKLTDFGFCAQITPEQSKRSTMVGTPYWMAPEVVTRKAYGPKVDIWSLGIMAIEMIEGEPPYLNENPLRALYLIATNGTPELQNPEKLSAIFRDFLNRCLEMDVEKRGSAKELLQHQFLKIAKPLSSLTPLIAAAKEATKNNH

[4] = Log D at pH 7.4; type: physicochemical; conditions: octanol/buffer
[5] = Kinetic solubility; type: physicochemical
[6] = system: MDCK parent cells; experiment: MDCK permeability and efflux; type: in vitro ADME; conditions: for MDCK A→B Papp: apical to basolateral
[7] = Intrinsic clearance in human liver microsomes; type: in vitro ADME; conditions: human liver microsomes 0.5 mg/mL, 0.5 μM, scaled
[8] = Intrinsic clearance in human hepatocytes; type: in vitro ADME; conditions: human hepatocytes 0.5 million cells/mL, 0.5 μM, scaled
[9] = Intrinsic clearance in rat liver microsomes; type: in vitro ADME; conditions: rat liver microsomes 0.5 mg/mL, 0.5 μM, scaled
[10] = Intrinsic clearance in rat hepatocytes; type: in vitro ADME; conditions: rat hepatocytes 0.5 million cells/mL, 0.5 μM, scaled
[11] = Intravenous bolus and infusion pharmacokinetics in Sprague-Dawley rats; type: in vivo, rat; conditions: for Clearance relative to hepatic blood flow: dosed in rat; for Plasma CL: n = 3; for In vivo rat CLp IV bolus: plasma
[12] = Unbound fraction in rat; type: in vitro ADME
[13] = Unbound fraction in liver perfusate and liver homogenate; type: in vitro ADME, rat
[14] = system: Oct1/2; experiment: Blood clearance in Oct1/2 double KO and wild-type mice with or without ABT; type: in vivo, mouse; conditions: for Reduction of blood clearance by ABT: ABT 100 mg/kg oral 2 h before GNE1 2 mg/kg IV
[15] = Single-pass isolated perfused rat liver; type: in vitro ADME; conditions: for Propranolol (cassette) ER: propranolol 2 to 4 μM
[16] = not given; remark: listed apart in the source
[17] = system: cryo-preserved rat hepatocytes; conditions: cited from earlier work
[18] = system: cytochrome P450 (rat S9); experiment: NADPH-dependent; type: in vitro ADME; conditions: S9 2 mg/mL, NADPH 1 mM
[19] = system: N-acetyltransferase (rat S9); experiment: Acetyl-CoA-dependent N-acetylation in rat liver S9; type: in vitro ADME; conditions: S9 2 mg/mL, acetyl-CoA 1 mM
[20] = Stability of GNE4 in rat intestinal S9 and feces; type: in vitro ADME; conditions: rat intestinal S9 and feces (data not shown)
[21] = system: propranolol metabolism; experiment: In vitro inhibition of propranolol metabolism by quinine; type: in vitro ADME; conditions: quinine 1-10 micromolar, in vitro (data not shown)

SMILES: Nn1nnc2ccccc21 [ABT, 1-aminobenzotriazole]
Inhibition of oxidative and N-acetylation metabolism of GNE1 [1]: completely inhibited
Cmax [2]: 752 µM

SMILES: CC(C)NCC(O)COc1cccc2ccccc12 (stereo not drawn) [propranolol, reference compound]
Propranolol (cassette) ER ([15]; cassette with GNE1 0.3 μM and Quinine (10 μM)): 0.45
Propranolol (cassette) ER ([15]; cassette with GNE1 Cin = 0.3 μM): > 0.95
Propranolol (cassette) ER ([15]; cassette with GNE1 Cin = 0.3 μM, listed as Propranolol): >0.95
Propranolol (cassette) ER ([15]; cassette with GNE1 Cin = 8 μM): 0.91

SMILES: C=C[C@H]1C[N@@]2CC[C@H]1C[C@H]2[C@H](O)c1ccnc2ccc(OC)cc12 [quinine]
Effect on propranolol metabolism [21]: inhibit propranolol metabolism

Now from value to molecule, other results behind:

pKi [3]: 7.59
Log DpH=7.4 [4]: 0.83
Kinetic solubility [5]: 157 µM
MDCK efflux ratio [6]: 43
MDCK A→B Papp [6]: 0.1 ×10⁻⁶ cm/s
HLM CLint [7]: 4.5 mL/min/kg
HH CLint [8]: 2.4 mL/min/kg
RLM CLint [9]: 6.1 mL/min/kg
RH CLint [10]: 34 mL/min/kg
Clearance relative to hepatic blood flow [11]: greater than hepatic blood flow
CLB (biliary clearance) ([11]; rat, IV bolus, 2 mg/kg): 21.5 ± 6.20 mL/min/kg
CLR (renal clearance) ([11]; rat, IV bolus, 2 mg/kg): 49.7 ± 3.84 mL/min/kg
Terminal half-life ([11]; rat, IV bolus, 2 mg/kg): 1.32 ± 0.43 h
Vss ([11]; rat, IV bolus, 2 mg/kg): 20.5 ± 1.92 L/kg
Plasma CL ([11]; rat, IV bolus, 2 mg/kg): 216 ± 53.0 mL/min/kg
In vivo rat CLp IV bolus ([11]; rat, IV bolus): 216 mL/min/kg
Terminal half-life ([11]; rat, IV infusion 0.57 mg/kg/h): 0.74 ± 0.10 h
Vss ([11]; rat, IV infusion 0.57 mg/kg/h): 4.2 ± 1.2 L/kg and 4.21 ± 1.16 L/kg
Plasma CL ([11]; rat, IV infusion 0.57 mg/kg/h to 90% of steady state): 121 ± 4.35 mL/min/kg
fu rat [12]: 0.16
fu perfusate ([13]; isolated perfused liver perfusate (4% BSA, 20% bovine red blood cells)): 0.3
fu in liver (corrected) ([13]; liver homogenate, corrected for dilution): 0.3/0.01
Reduction of blood clearance by ABT ([14]; Oct1/2 double KO mice): 28.2%
Average change of blood clearance between wild-type and transporter KO mice ([14]; regardless of ABT treatment): 56%
Average overall decrease of blood clearance by ABT ([14]; wild-type and double KO mice averaged): 24%
Reduction of blood clearance by ABT ([14]; wild-type mice): 20.5%
GNE1 hepatic ER ([15]; GNE1 Cin = 0.3 μM with Quinine (10 μM)): 0.36
GNE1 hepatic ER ([15]; GNE1 Cin = 0.3 μM, flow 12 mL/min): 0.78
GNE1 hepatic ER ([15]; GNE1 Cin = 8 μM): 0.41
Perfusate Cout ([15]; end of perfusion, Cin = 0.3 μM): 0.07 µM
Total liver concentration of GNE1 ([15]; end of perfusion, Cin = 0.3 μM): 8 µM
Biliary clearance, fold lower than calculated perfusate clearance ([15]; isolated perfused rat liver, Cin 0.3 μM): about 26 fold
Biliary clearance ([15]; isolated perfused rat liver, GNE1 Cin = 0.3 μM): 0.7 mL/min/kg
Biliary clearance ([15]; isolated perfused rat liver, GNE1 Cin = 0.3 μM with Quinine (10 μM)): 0.046 mL/min/kg
Biliary clearance ([15]; isolated perfused rat liver, GNE1 Cin = 8 μM): 0.23 mL/min/kg
kpu,u (intracellular to extracellular ratio of unbound concentrations) ([15]; liver/perfusate, Cin = 0.3 μM): 3.8
Biliary clearance as share of total perfusate clearance ([15]; multiple IPL experiments): less than 5%
Total amount of GNE1 recovered in urine over 24 hours (intact rats (no bile collection), % of dose): 16% and 15.6% and 15%
Dose recovery of unchanged GNE1 in urine (intact rats, 0-8 h (one value across 0-4h and 4-8h)): 8.5 ± 2.3 % of Total Dosed
Dose recovery of unchanged GNE1 in urine (intact rats, 8-24h): 7.1 ± 2.0 % of Total Dosed
Dose recovery of unchanged GNE1 in urine (intact rats, 24-48h): <1 % of Total Dosed
Dose recovery of unchanged GNE1 in feces (intact rats, 24-48h (72 h experiment)): 8.4 ± 2.9 % of Total Dosed
Total Recovery (24–72 h) of unchanged GNE1 (intact rats, 24–72 h): 8.4 % of Total Dosed
Dose recovery of unchanged GNE1 in feces (intact rats, 48-72h): <1 % of Total Dosed
Dose recovery of unchanged GNE1 in urine (intact rats, 48-72h): <1 % of Total Dosed
Recovery of GNE1 in feces during 0–24 hours (intact rats, 72 h collection experiment): up to 91 % of Total Dosed
Total Recovery of unchanged GNE1 (intact rats, up to 24 hours): 93 % of Total Dosed
N-acetylation as share of total dose (rat, IV): about 10%
Fecal recovery of unchanged GNE1 over 24 hours ([16]; BDC rats): 24%
Dose recovery of unchanged GNE1 in bile ([16]; BDC rats, 0-4h): 7.8 ± 1.2 % of Total Dosed
Dose recovery of unchanged GNE1 in urine ([16]; BDC rats, 0-4h): BQL
Dose recovery of unchanged GNE1 in feces ([16]; BDC rats, 0-8h): 5.8 ± 4.2 % of Total Dosed
Dose recovery of unchanged GNE1 in bile ([16]; BDC rats, 4-8h): 2.5 ± 0.9 % of Total Dosed
Dose recovery of unchanged GNE1 in bile ([16]; BDC rats, 8-24h): 3.9 ± 1.8 % of Total Dosed
Dose recovery of unchanged GNE1 in urine ([16]; BDC rats, 8-24h): 2.8 ± 1.0 % of Total Dosed
Dose recovery of unchanged GNE1 in bile ([16]; BDC rats, 24-48h): <1 % of Total Dosed
Dose recovery of unchanged GNE1 in feces ([16]; BDC rats, 24-48h): 2.2 ± 1.4 % of Total Dosed
Dose recovery of unchanged GNE1 in urine ([16]; BDC rats, 24-48h): <1 % of Total Dosed
Total Recovery (24–72 h) of unchanged GNE1 ([16]; BDC rats, 24–72 h): 2.2 % of Total Dosed
Dose recovery of unchanged GNE1 in bile ([16]; BDC rats, 48-72h): 0 % of Total Dosed
Dose recovery of unchanged GNE1 in feces ([16]; BDC rats, 48-72h): <1 % of Total Dosed
Dose recovery of unchanged GNE1 in urine ([16]; BDC rats, 48-72h): <1 % of Total Dosed
Overall biliary excretion of unchanged GNE1 ([16]; BDC rats, 24 h): ~14%
Recovery of GNE1 in feces during 0–24 hours ([16]; BDC rats, 72 h collection experiment): 31 % of Total Dosed
Percentage of GNE1 detected in urine ([16]; BDC rats, compared with intact rats): 30%
Total Recovery of unchanged GNE1 ([16]; BDC rats, up to 24 hours): 71 % of Total Dosed
Biliary clearance as share of total clearance ([16]; cannulated rats, IV): approximately 14%
Renal clearance as share of total clearance ([16]; rats, IV): ~16%
SMILES: N[C@H]1CC[C@H](CNc2ncc(Cl)c(Nc3cc(C4CC4)[nH]n3)n2)CC1 [GNE1, N^2-(((1r,4r)-4-aminocyclohexyl)methyl)-5-chloro-N^4-(5-cyclopropyl-1H-pyrazol-3-yl)pyrimidine-2,4-diamine]
CLR (renal clearance) ([11]; rat, IV infusion 0.57 mg/kg/h): 20 ± 1.2 mL/min/kg and 20.2 ± 1.22 mL/min/kg
Dose recovery of unchanged GNE1 in urine ([16]; BDC rats, 4-8h): 30 % of Total Dosed and 30 ± 1.1 % of Total Dosed
Dose recovery of unchanged GNE1 in feces ([16]; BDC rats, 8-24h): 18 % of Total Dosed and 18 ± 4.7 % of Total Dosed
Uptake rate (CLint, influx) [17]: 11.1 mL/min/g of liver

pKi [3]: 7.66
Log DpH=7.4 [4]: 0.48
Kinetic solubility [5]: 72 µM
MDCK efflux ratio [6]: 13.5
MDCK A→B Papp [6]: 0.4 ×10⁻⁶ cm/s
HLM CLint [7]: 8.6 mL/min/kg
HH CLint [8]: 7.6 mL/min/kg
RLM CLint [9]: 62 mL/min/kg
RH CLint [10]: 91 mL/min/kg
CLint of P450 metabolism in rat S9 [18]: <10 mL/min/kg
CLint of N-acetylation in rat S9 [19]: 337 mL/min/kg
Clearance relative to hepatic blood flow [11]: greater than hepatic blood flow
In vivo rat CLp IV bolus ([11]; rat, IV bolus): >>hepatic blood flow
fu rat [12]: 0.22
SMILES: NC1CCN(c2nc(Nc3cc(C4CC4)[nH]n3)c3sccc3n2)CC1 [GNE2, 2-(4-aminopiperidin-1-yl)-N-(5-cyclopropyl-1H-pyrazol-3-yl) thieno [[3],2-d]pyrimidin-4-amine]

pKi [3]: 7.59
Log DpH=7.4 [4]: -0.2
Kinetic solubility [5]: 136 µM
MDCK efflux ratio [6]: 6.2
MDCK A→B Papp [6]: 0.5 ×10⁻⁶ cm/s
HLM CLint [7]: 9.1 mL/min/kg
HH CLint [8]: 4.5 mL/min/kg
RLM CLint [9]: 8.3 mL/min/kg
RH CLint [10]: 10 mL/min/kg
CLint of P450 metabolism in rat S9 [18]: <10 mL/min/kg
CLint of N-acetylation in rat S9 [19]: 21 mL/min/kg
Clearance relative to hepatic blood flow [11]: greater than hepatic blood flow
In vivo rat CLp IV bolus ([11]; rat, IV bolus): 160 mL/min/kg
fu rat [12]: 0.25
SMILES: N[C@H]1CC[C@H](CNc2nccc(Nc3cc(C4CC4)[nH]n3)n2)CC1 [GNE3, N^2-(((1r,4r)-4-aminocyclohexyl)methyl)-N^4-(5-cyclo-propyl-1H-pyrazol-3-yl)pyrimidine-2,4-diamine]

Stability to hydrolysis [20]: stable to hydrolysis
GNE4 amount relative to parent (fold less) in urine, feces and bile combined (intact rats, over 72 hours): approximately 13 fold
Amount of GNE4 (N-acetylated metabolite of GNE1) detected in feces (rat, after IV GNE1, up to 24 hours, % of total dose): 9.5%
GNE4 amount relative to parent (fold less) in urine, feces and bile combined ([16]; BDC rats, over 72 hours): ~8 fold
SMILES: CC(=O)N[C@H]1CC[C@H](CNc2ncc(Cl)c(Nc3cc(C4CC4)[nH]n3)n2)CC1 [GNE4, N-((1r,4r)-4-(((5-chloro-4-((5-cyclopropyl-1H-pyrazol-3-yl)amino)pyrimidin-2-yl)amino)methyl)cyclohexyl)acetamide]
